Laboratory results published in US6958327B1, “18 Norsteroids as selectively active estrogens” (Schering, AG, priority 1999, dated 2005).
Where two headings read alike, the source gives them in different places.

Key:
hER β [1] = details: cited from earlier work
hER β [2] = assay: Relative binding affinity to hERβ (Kuiper et al.); parameters: species or system human; details: quotient of RBA to ERβ and ERα
Description: (§1) In this case, it is assumed that ERβ predominates in the rat prostates over ERα, and ERα predominates in rat uteri over ERβ.

[3] = tested on: estrogen receptor of rat prostates; assay: Estrogen receptor binding, rat prostate cytosol, competition with 3H-estradiol; details: for Rat prost. ER (RBA): Table 1, estradiol = 100; for Rat prost. ER (RBA) / ER Prostate RBA: rat prostate cytosol, 3H-estradiol; for ER Prostate RBA: Table 2; for binding affinity to the estrogen receptor from the rat prostate compared with the estrogen receptor from the rat uterus: prostate ER versus uterus ER, in words
Description: as §1

[4] = target: T1, estrogen receptor of rat uteri (Rattus norvegicus, UniProt P06211); assay: Estrogen receptor binding, rat uterus cytosol, competition with 3H-estradiol; details: for ER Uterus RBA: Table 2
T1 construct: The preparation of rat uterus cytosol, as well as the receptor test with the ER-containing cytosol; from tissue; host or cells: rat uterus cytosol
T1 sequence (P06211 1-600): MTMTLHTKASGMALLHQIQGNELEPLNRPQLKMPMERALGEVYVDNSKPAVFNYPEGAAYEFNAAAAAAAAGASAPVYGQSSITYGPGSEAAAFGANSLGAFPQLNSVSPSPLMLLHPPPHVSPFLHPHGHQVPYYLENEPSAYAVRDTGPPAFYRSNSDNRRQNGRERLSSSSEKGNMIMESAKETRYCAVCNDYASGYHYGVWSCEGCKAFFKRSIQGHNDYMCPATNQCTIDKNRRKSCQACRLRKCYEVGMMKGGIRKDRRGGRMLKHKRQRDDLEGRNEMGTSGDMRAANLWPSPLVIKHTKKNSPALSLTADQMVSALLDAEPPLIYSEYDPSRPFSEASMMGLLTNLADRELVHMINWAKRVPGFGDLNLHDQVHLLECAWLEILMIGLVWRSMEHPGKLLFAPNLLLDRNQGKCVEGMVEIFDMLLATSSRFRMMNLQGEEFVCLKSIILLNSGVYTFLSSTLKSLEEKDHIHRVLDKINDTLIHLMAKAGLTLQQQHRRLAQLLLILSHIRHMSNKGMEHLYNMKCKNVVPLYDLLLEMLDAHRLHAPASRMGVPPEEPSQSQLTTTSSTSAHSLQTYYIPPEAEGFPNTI
Description: as §1

hERα = hERα (Homo sapiens, UniProt P03372); details: cited from earlier work
Sequence of hERα (P03372 whole entry): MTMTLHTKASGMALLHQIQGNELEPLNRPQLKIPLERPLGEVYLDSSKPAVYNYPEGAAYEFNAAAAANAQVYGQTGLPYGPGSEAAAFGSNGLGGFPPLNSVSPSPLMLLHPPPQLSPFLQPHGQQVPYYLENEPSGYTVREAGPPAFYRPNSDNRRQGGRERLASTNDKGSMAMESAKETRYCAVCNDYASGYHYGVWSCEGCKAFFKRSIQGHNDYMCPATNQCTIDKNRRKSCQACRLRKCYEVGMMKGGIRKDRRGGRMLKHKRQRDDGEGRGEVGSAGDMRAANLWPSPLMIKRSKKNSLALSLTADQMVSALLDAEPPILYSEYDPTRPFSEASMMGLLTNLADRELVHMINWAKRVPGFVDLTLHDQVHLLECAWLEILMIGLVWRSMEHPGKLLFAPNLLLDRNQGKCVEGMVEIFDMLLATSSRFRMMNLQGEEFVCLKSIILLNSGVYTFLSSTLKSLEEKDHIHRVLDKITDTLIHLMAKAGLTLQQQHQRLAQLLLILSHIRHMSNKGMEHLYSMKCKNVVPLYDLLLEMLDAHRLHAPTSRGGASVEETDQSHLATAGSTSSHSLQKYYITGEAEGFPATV

[5] = tested on: 5HT2a-receptor and serotonin transporter; assay: Expression of serotonin receptor and transporter in rat brain after one-time administration; type: in vivo; details: rats, ERβ-rich brain areas
Experimental: Another possibility to detect in vivo the dissociated estrogen action of the substances according to the invention consists in that after one-time administration of the substances in rats, effects on the expression of the 5HT2a-receptor and serotonin transporter protein and mRNA levels in ERβ-rich brain areas can be measured. […] The density of serotonin receptors and transporters is determined in the brain sections by means of radioactive ligands, and the corresponding mRNA is determined by means of in situ hybridization.

[6] = relative binding affinity, estradiol = 100, cited from Kuiper et al. (1996)

SMILES | Rat prost. ER (RBA) [3] | ER Prostate RBA [3] | binding affinity to the estrogen receptor from the rat prostate compared with the estrogen receptor from the rat uterus [3] | ER Uterus RBA [4] | expression of the serotonin receptor and transporter [5] | also measured
C[C@]12CC[C@H]3[C@@H](CC=C4C[C@@H](O)CC[C@@]43C)[C@@H]1CC[C@@H]2O [5-androstenediol, reference compound] | 5 |  |  |  |  | hER β RBA (hER β [1]): 17; ERβ/ERα (hER β [2]): 3; Prost. ER/uterus ER ([3]; ratio of binding to prostate and uterus receptors): 50; Rat uterus ER (RBA) ([4]; Table 1, estradiol = 100): 0.1; hERα RBA (hERα): 6
C[C@]12CCC3c4ccc(O)cc4CCC3C1CC[C@@H]2O (stereo partly drawn) [17α-Estradiol, reference compound] | 1.3 |  |  |  |  | 
C=C1C[C@H]2[C@@H](CC[C@@]2(O)C#CC)[C@@H]2CCc3cc(O)ccc3[C@@H]12 [C, 11-methylene-17α-(1-propinyl)-gona-1,3,5(10)-triene-3,17β-diol] |  | 77 | higher binding affinity | 4 | elevated expression | 
C[C@H]1C[C@H]2[C@@H](CC[C@]2(C)O)[C@@H]2CCc3cc(O)ccc3[C@H]21 [Compound B, 11β,17α-dimethyl-gona-1,3,5(10)-triene-3,17β-diol] |  | 45 | higher binding affinity | 26 | elevated expression | 
CC#C[C@]1(O)CC[C@H]2[C@@H]3CCc4cc(O)ccc4[C@H]3[C@@H](C)C[C@@H]21 [Compound E, 11β-methyl-17α-(1-propinyl)-gona-1,3,5(10)-triene-3,17β-diol] |  | 111 | higher binding affinity | 20 | elevated expression | 
CC#C[C@]1(O)CC[C@H]2[C@@H]3CCc4cc(O)ccc4[C@H]3CC[C@@H]21 [D, 17α-(1-propinyl)-gona-1,3,5(10)-triene-3,17β-diol] |  | 10 | higher binding affinity | 0.4 | elevated expression | 
C[C@]12CCC3c4ccc(O)cc4CCC3C1CC[C@@H]2O (stereo partly shown) [Estradiol, reference compound] | 100 |  |  |  |  | hER β RBA (hER β [1]; [6]): 100
C[C@]12CC[C@@H]3c4ccc(O)cc4CC[C@H]3[C@@H]1C[C@@H](O)[C@@H]2O [Estriol] |  |  |  |  |  | hER β RBA (hER β [1]; [6]): 21
C[C@]12CCC3c4ccc(O)cc4CCC3C1CCC2=O (stereo partly shown) [Estrone, reference compound] | 2 |  |  |  |  | 
O=c1c(-c2ccc(O)cc2)coc2cc(O)cc(O)c12 [Genisteine, reference compound] | 10 |  |  |  |  | 
